In article PMC12396409, “Screening and hit evaluation of a microbial metabolite library against the pathogenic Plasmodium falciparum and Toxoplasma gondii parasites” (International Journal for Parasitology: Drugs and Drug …, 2025):

Key:
[1] = tested on: P. falciparum 3D7 parasites; test: P. falciparum growth inhibition assay, 1-cycle (72 h treatment), SYBR DNA staining (library screen at 2 μg/mL and dose-response); format: cell-based, Plasmodium falciparum; details: 72 h; for Pf_72h_%Growth_Rep1: replicate 1; for Pf_72h_%Growth_Rep2: replicate 2
[2] = tested on: T. gondii RH strain (RH-Tub-eYFP) tachyzoites; test: microbe, parasite or virus in culture; format: cell-based, Toxoplasma gondii; details: 72 h; for Tg_72h_%Growth_Rep1: replicate 1; for Tg_72h_%Growth_Rep2: replicate 2
[3] = tested on: P. falciparum 3D7 parasites; test: P. falciparum growth inhibition assay, 2-cycle (120 h treatment), delayed-death screen and dose-response; format: cell-based, Plasmodium falciparum; details: for Pf_120h_%Growth_Rep1: replicate 1; for Pf_120h_%Growth_Rep2: replicate 2
[4] = P. falciparum, screen at 2 μg/mL
[5] = P. falciparum, 120 h, screen at 2 μg/mL
[6] = library screen at 2 μg/mL, % growth
[7] = library screen at 2 μg/mL, 120 h, % growth
[8] = P. falciparum, parasite screen 2 μg/mL, % growth
[9] = T. gondii, parasite screen 2 μg/mL, % growth
[10] = P. falciparum, 120 h, parasite screen 2 μg/mL, % growth

CCC(C)CCCCCCC(=O)N[C@H]1[C@H](Oc2c3cc4cc2Oc2ccc(cc2Cl)[C@@H](O[C@@H]2O[C@H](CO)[C@@H](O)[C@H](O)[C@H]2NC(C)=O)[C@@H]2NC(=O)[C@H](NC(=O)[C@@H]4NC(=O)[C@H]4NC(=O)[C@@H](Cc5ccc(c(Cl)c5)O3)NC(=O)[C@H](N)c3ccc(O)c(c3)Oc3cc(O)cc4c3)c3ccc(O)c(c3)-c3c(O[C@H]4O[C@H](CO)[C@@H](O)[C@H](O)[C@@H]4O)cc(O)cc3[C@@H](C(=O)O)NC2=O)O[C@H](CO)[C@@H](O)[C@@H]1O (stereo partly drawn) [Teicoplanin A2-4]
Pf_72h_%Growth_Rep1 [1, 4]: 81.32% | Pf_72h_%Growth_Rep2 [1, 4]: 78.26% | Tg_72h_%Growth_Rep1 ([2]; T. gondii, screen at 2 μg/mL): 112.03% | Tg_72h_%Growth_Rep2 ([2]; T. gondii, screen at 2 μg/mL): 79.02% | Pf_120h_%Growth_Rep1 [3, 5]: 64.36% | Pf_120h_%Growth_Rep2 [3, 5]: 53.42%

CO/C1=C\C(C)=C\C(C)C(O)C(C)C/C(C)=C/C=C/C(OC)C(C(C)C(O)C(C)C2(O)CC(OC(=O)/C=C/C(=O)O)C(C)C(C(C)C)O2)OC1=O (stereo not drawn) [Bafilomycin C1]
Pf_72h_%Growth_Rep1 [1, 6]: 1.92% | Pf_72h_%Growth_Rep2 [1, 6]: 0.47% | Tg_72h_%Growth_Rep1 [2, 6]: -0.73% | Tg_72h_%Growth_Rep2 [2, 6]: -0.13% | Pf_120h_%Growth_Rep1 [3, 7]: 3.53% | Pf_120h_%Growth_Rep2 [3, 7]: -2.55%

CC[C@H]1C[C@]23OC(=O)/C(=C(\O)[C@@]4(CC)[C@@H]5CC[C@H](C)[C@H](O[C@H]6C[C@H](O)[C@H](NC(=O)c7[nH]c(Cl)cc7Cl)[C@@H](C)O6)[C@H]5C=C[C@H]4C/C=C/C/C(C)=C/[C@@]2(C)C=C1C(=O)O)C3=O [Decatromicin B]
Pf_72h_%Growth_Rep1 [1, 4]: 89.49% | Pf_72h_%Growth_Rep2 [1, 4]: 90.33% | Tg_72h_%Growth_Rep1 ([2]; T. gondii, screen at 2 μg/mL): 105.42% | Tg_72h_%Growth_Rep2 ([2]; T. gondii, screen at 2 μg/mL): 104.91% | Pf_120h_%Growth_Rep1 [3, 5]: 74.87% | Pf_120h_%Growth_Rep2 [3, 5]: 101.36%

CC[C@H](C)[C@H]1NC(=O)c2c1n(C)c1ccccc1c2=O [Quinolactacin A1]
Pf_72h_%Growth_Rep1 [1, 8]: 15.83% | Pf_72h_%Growth_Rep2 [1, 8]: 6.94% | Tg_72h_%Growth_Rep1 [2, 9]: 131.04% | Tg_72h_%Growth_Rep2 [2, 9]: 75.52% | Pf_120h_%Growth_Rep1 [3, 10]: 17.07% | Pf_120h_%Growth_Rep2 [3, 10]: -10.01%

C/C=C(\C)C(=O)OC[C@H]1O[C@H](O[C@H]2O[C@H](COC(=O)/C(C)=C/C)[C@@H](O)[C@H](O)[C@H]2O[C@@H]2O[C@H](CO)[C@@H](OC(=O)/C(C)=C/C)[C@H](OC(=O)/C(C)=C/C)[C@H]2O)[C@H](O[C@@H]2O[C@H](CO)[C@@H](OC(=O)/C(C)=C/C)[C@H](OC(=O)/C(C)=C/C)[C@H]2O)[C@@H](O)[C@@H]1O [Actinotetraose Hexatiglate]
1) Growth (%) at 72 h ([1]; P. falciparum, 2 μg/mL): 46.54% | Pf_72h_%Growth_Rep1 [1, 6]: 45.55% | Pf_72h_%Growth_Rep2 [1, 6]: 47.53% | Tg_72h_%Growth_Rep1 [2, 6]: 97.33% | Tg_72h_%Growth_Rep2 [2, 6]: 100.02% | 2) Growth (%) at 120 h ([3]; P. falciparum, 2 μg/mL, 120 h): 19.22% | 3) Fold change (72 h/120 h) ([3]; P. falciparum, growth at 72 h / growth at 120 h, 2 μg/mL): 2.4 | Pf_120h_%Growth_Rep1 [3, 7]: 16.78% | Pf_120h_%Growth_Rep2 [3, 7]: 21.66%

Elaiophylin
Pf_72h_%Growth_Rep1 [1, 6]: 6.63% | Pf_72h_%Growth_Rep2 [1, 6]: 7.41% | Tg_72h_%Growth_Rep1 [2, 6]: -0.18% | Tg_72h_%Growth_Rep2 [2, 6]: 0.99% | Pf_120h_%Growth_Rep1 [3, 7]: 18.08% | Pf_120h_%Growth_Rep2 [3, 7]: 22.72%

CCCCCCCCCCCCCCCC(=O)C1=C(O)C(CO)OC1=O (stereo not drawn) [TAN 1364B]
Pf_72h_%Growth_Rep1 [1, 8]: 72.25% | Pf_72h_%Growth_Rep2 [1, 8]: 85.83% | Tg_72h_%Growth_Rep1 [2, 9]: 101.38% | Tg_72h_%Growth_Rep2 [2, 9]: 92.62% | Pf_120h_%Growth_Rep1 [3, 10]: 149.02% | Pf_120h_%Growth_Rep2 [3, 10]: 76.93%

CO[C@@H]1[C@@H](OC(N)=O)[C@@H](O)[C@H](Oc2ccc3c(O)c(NC(=O)c4ccc(O)c(CCC(C)C)c4)c(=O)oc3c2C)OC1(C)C [Dihydronovobiocin]
Pf_72h_%Growth_Rep1 [1, 6]: 88.16% | Pf_72h_%Growth_Rep2 [1, 6]: 85.96% | Tg_72h_%Growth_Rep1 [2, 6]: 162.91% | Tg_72h_%Growth_Rep2 [2, 6]: 101.29% | Pf_120h_%Growth_Rep1 [3, 7]: 93.97% | Pf_120h_%Growth_Rep2 [3, 7]: 91.59%
